Source: publication PMC9229160 (Pharmaceuticals, 2022)

Target: T1, human kappa-opioid receptor (KOR) (Homo sapiens, UniProt P41145)
T1 construct: gene OPRK1
Test: [3H]U69, […] radioligand competition binding, CHO-hKOR membranes; […]GTPγS antagonism (Ke […])

Question: Cc1c(NC(=O)c2ccc(Cl)cc2)cc(-c2ccccc2)n1CCCN1CCOCC1 [Compound A] was tested. Which Ki did it give?
Answer: 1350 ± 320 nM
